According to patent US20240390349A1, “DOSING REGIMEN OF CAPSID INHIBITOR” (priority 2023, published 2024):
“Also recorded” adds a separate entry of the source. Where two headings read alike, the source gives them in different places.

What was measured:
[1] = system: HIV-1 capsid LEN resistance mutations; conditions: for Fold decrease in LEN susceptibility: 1 participant
Description: In HTE participants (Example 4), the resistance analysis population (RAP) during the oral bridging period included 9 participants (16%, 9/57) who met the criteria for resistance analysis, including 4 participants also present in the previous analysis. […];

HIV-1 (MT-4 cells) = experiment: Inhibitory quotient 4 (4-fold in vitro protein-adjusted 95% effective concentration, MT-4 cells); assay type: cell-based; conditions: 4-fold in vitro protein binding-adjusted 95% effective concentration
[2] = LEN plasma concentrations during oral bridging period, CALIBRATE (Phase 2, ARV-naive PWH); assay type: in vivo; conditions: for concentration at 1 day / concentration at 10 week / concentration at 20 week / concentration at 30 week: human, plasma, 300 mg
Description: The objective of this study was to evaluate the pharmacokinetics (PK) of LEN during oral bridging period (OBP) to assess the adequacy of 300-mg PO once-weekly (QW) regimen for maintaining therapeutic concentrations between missed SC LEN doses. During OBP, sparse PK samples were collected at the start of OBP and every ˜10-12 weeks (without regard to a prespecified time since dose) until SC LEN was resumed. LEN plasma concentrations were summarized during OBP in the CAPELLA (N=57) and CALIBRATE (N=82) studies.
This Example describes a Phase 2, randomized, open-label, active-controlled, multicenter study. Participants in Treatment Groups 1 and 2 required oral bridging following a clinical hold imposed by the Food & Drug Administration on injectable LEN as the SC injection of LEN could not be administered within the protocol visit window. An Oral Bridging visit was completed every 10 to 12 weeks. Participants had to have met all of the inclusion criteria and none of the exclusion criteria to be included in the study.
Participants in Treatment Groups 1 and 2 required oral weekly bridging when SC injection of LEN could not be administered due to the LEN clinical hold. • If 26 to 28 weeks elapsed since the last SC injection and if clinically appropriate to continue LEN, oral LEN 300 mg (1 tablet) once a week was started at oral bridging visits and continued weekly dosing on the same day of the week. • If more than 28 weeks elapsed since the last SC injection and if clinically appropriate to continue LEN, the oral lead-in was restarted at the oral bridging visit and the participant continued oral weekly dosing on the same day of the week, until SC LEN was administered, as shown in Table 9. • Participants continued receiving oral weekly LEN 300 mg until they received their next SC LEN injection. • Oral bridging visits were completed every 10-12 weeks. Additional visits during the oral weekly administration were conducted perd investigator's discretion.

[3] = Exposure-response analyses for efficacy and safety (PopPK-derived exposures); assay type: in vivo, human
Method: Exposure-response relationships for LEN were evaluated in HTE PWH with HIV-1 RNA<50 copies/mL at the oral bridging baseline in the Phase 2/3 study described in Example 4, using LEN exposure parameters (Ctrough, Cavg, and Cmax) derived from PopPK modeling.
Exposure-safety relationships for LEN were evaluated in the HTE PWH studies described in Example 4 (N=55), and in treatment-naive PWH in the study described in Example 5 (N=82) who received the oral bridging LEN regimen. Exposure-safety evaluations used LEN exposure metrics (Cavg, Ctrough, and Cmax) derived from PopPK analysis and the 5 most common treatment-emergent adverse events (TEAEs) were evaluated in relation to presence/absence in the LEN group across the entire oral bridging period in the two studies separately and combined (excluding infections and infestations AEs and injection site reactions).

[4] = Safety during oral bridging period, CAPELLA; assay type: in vivo
[5] = SC LEN total, SC LEN resumption visit
[6] = Treatment Group 1, SC LEN resumption visit
[7] = Treatment Group 2, SC LEN resumption visit

CC(C)(C#Cc1ccc(-c2ccc(Cl)c3c(NS(C)(=O)=O)nn(CC(F)(F)F)c23)c([C@H](Cc2cc(F)cc(F)c2)NC(=O)Cn2nc(C(F)(F)F)c3c2C(F)(F)[C@@H]2C[C@H]32)n1)S(C)(=O)=O [LEN, N—((S)-1-(3-(4-chloro-3-(methylsulfonamido)-1-(2,2,2-trifluoroethyl)-1H-indazol-7-yl)-6-(3-methyl-3-(methylsulfonyl)but-1-yn-1-yl)pyridin-2-yl)-2-(3,5-difluorophenyl)ethyl)-2-((3bS,4aR)-5,5-difluoro-3-(trifluoromethyl)-3b,4,4a,5-tetrahydro-1H-cyclopropa [3,4]cyclopenta [1,2-c]pyrazol-1-yl) acetamide]
Fold decrease in LEN susceptibility ([1]; K70N+N74K): 289 fold
Mean fold decrease in LEN susceptibility ([1]; Q67H or Q67Q/H, 3 participants): 5.6 fold
Fold decrease in LEN susceptibility ([1]; Q67H+K70R+T107T/N): 393 fold
Plasma concentration corresponding to inhibitory quotient 4 (IQ4) (HIV-1 (MT-4 cells)): 15.5 ng/mL
Mean LEN plasma concentration ([2]; SC LEN total (Groups 1+2), oral LEN 300 mg QW, Day 1): 27.8 (47.4) ng/mL
Lower 90% CI of Concentration [2, 5]: 43.6 ng/mL
Mean LEN plasma concentration [2, 5]: 50.7 ng/mL
Mean LEN plasma concentration ([2]; SC LEN total, Week 10): 54.9 (70.8) ng/mL
Mean LEN plasma concentration ([2]; SC LEN total, Week 20): 52.5 (77.7) ng/mL
Mean LEN plasma concentration ([2]; SC LEN total, Week 30): 50.1 (62.3) ng/mL
Mean LEN plasma concentration ([2]; Treatment Group 1 (SC LEN + [DVY→TAF]), Day 1): 28.8 (47.7) ng/mL
Lower 90% CI of Concentration [2, 6]: 38.6 ng/mL
Mean LEN plasma concentration [2, 6]: 49.4 ng/mL
Mean LEN plasma concentration ([2]; Treatment Group 1, Week 10): 50.9 (67.0) ng/mL
Mean LEN plasma concentration ([2]; Treatment Group 1, Week 20): 53.1 (84.5) ng/mL
Mean LEN plasma concentration ([2]; Treatment Group 1, Week 30): 43.7 (74.7) ng/mL
Mean LEN plasma concentration ([2]; Treatment Group 2 (SC LEN + [DVY→BIC]), Day 1): 26.7 (47.3) ng/mL
Lower 90% CI of Concentration [2, 7]: 42.7 ng/mL
Mean LEN plasma concentration [2, 7]: 52.2 ng/mL
Mean LEN plasma concentration ([2]; Treatment Group 2, Week 10): 59.3 (73.6) ng/mL
Mean LEN plasma concentration ([2]; Treatment Group 2, Week 20): 51.9 (70.2) ng/mL
Mean LEN plasma concentration ([2]; Treatment Group 2, Week 30): 56.5 (62.5) ng/mL
concentration at 1 day ([2]; oral, SC LEN total (Groups 1+2), oral LEN 300 mg QW, Day 1, read-out: Mean LEN plasma concentration): 27.8 ng/mL
concentration at 1 day ([2]; oral, Treatment Group 1, Day 1, read-out: Lower 90% CI of Concentration): 25.2 ng/mL
concentration at 10 week ([2]; oral, Treatment Group 1, Week 10, read-out: Lower 90% CI of Concentration): 41.1 ng/mL
concentration at 10 week ([2]; oral, Treatment Group 1, Week 10, read-out: Mean LEN plasma concentration): 50.9 ng/mL
concentration at 20 week ([2]; oral, Treatment Group 1, Week 20, read-out: Lower 90% CI of Concentration): 39.6 ng/mL
concentration at 20 week ([2]; oral, Treatment Group 1, Week 20, read-out: Mean LEN plasma concentration): 53.1 ng/mL
concentration at 30 week ([2]; oral, Treatment Group 1, Week 30, read-out: Mean LEN plasma concentration): 43.7 ng/mL
concentration at 1 day ([2]; oral, Treatment Group 2, Day 1, read-out: Lower 90% CI of Concentration): 23 ng/mL
concentration at 10 week ([2]; oral, Treatment Group 2, Week 10, read-out: Lower 90% CI of Concentration): 46.4 ng/mL
concentration at 10 week ([2]; oral, Treatment Group 2, Week 10, read-out: Mean LEN plasma concentration): 59.3 ng/mL
concentration at 20 week ([2]; oral, Treatment Group 2, Week 20, read-out: Lower 90% CI of Concentration): 40.2 ng/mL
concentration at 20 week ([2]; oral, Treatment Group 2, Week 20, read-out: Mean LEN plasma concentration): 51.9 ng/mL
concentration at 30 week ([2]; oral, Treatment Group 2, Week 30, read-out: Mean LEN plasma concentration): 56.5 ng/mL
concentration at 1 day ([2]; sc, SC LEN total, Day 1, read-out: Lower 90% CI of Concentration): 25.3 ng/mL
concentration at 10 week ([2]; sc, SC LEN total, Week 10, read-out: Lower 90% CI of Concentration): 47.1 ng/mL
concentration at 10 week ([2]; sc, SC LEN total, Week 10, read-out: Mean LEN plasma concentration): 54.9 ng/mL
concentration at 20 week ([2]; sc, SC LEN total, Week 20, read-out: Lower 90% CI of Concentration): 43.7 ng/mL
concentration at 20 week ([2]; sc, SC LEN total, Week 20, read-out: Mean LEN plasma concentration): 52.5 ng/mL
concentration at 30 week ([2]; sc, SC LEN total, Week 30, read-out: Lower 90% CI of Concentration): 24.4 ng/mL
concentration at 30 week ([2]; sc, SC LEN total, Week 30, read-out: Mean LEN plasma concentration): 50.1 ng/mL
concentration at 1 day ([2]; sc, Treatment Group 1 (SC LEN + [DVY→TAF]), Day 1, read-out: Mean LEN plasma concentration): 28.8 ng/mL
concentration at 1 day ([2]; sc, Treatment Group 2 (SC LEN + [DVY→BIC]), Day 1, read-out: Mean LEN plasma concentration): 26.7 ng/mL
Exposure-safety relationship (Cavg, Ctrough, Cmax vs common AEs) ([3]; Examples 4 (N=55) and 5 (N=82), separately and combined): lack of association between LEN exposure from oral bridging and the incidence of common AEs
Exposure-efficacy relationship (post hoc Ctrough vs HIV-1 RNA <50 or ≥50 copies/mL) ([3]; HTE PWH (Example 4)): No trend in post hoc Ctrough was observed
Participants with HIV-1 RNA<50 copies/mL at the time SC LEN was resumed ([3]; HTE PWH with HIV-1 RNA<50 at OB baseline (Example 4)): 39 of 40
Discontinuation of study drug due to a TEAE [4]: No participant discontinued study drug due to a TEAE
Participants with Grade 2 or higher TEAEs [4]: 26.3%
Treatment-related asthenia [4]: 1.8%
Treatment-related diarrhea [4]: 3.5%
Treatment-related nausea [4]: 1.8%
Grade 5 TEAE of death ([4]; 1 participant, considered unrelated to study drug): 1.8%
Participants with treatment-related TEAEs ([4]; all Grade 1): 3.5%
AE of death leading to discontinuation of the study ([4]; one participant): 1.8%
Changes from baseline in hematology and clinical chemistry ([4]; oral bridging period): no clinically relevant changes from baseline in hematology and clinical chemistry parameters; also recorded: no clinically relevant changes from baseline in median values for hematology and clinical chemistry
Changes from baseline in vital signs ([4]; oral bridging period): no clinically relevant changes from baseline in vital signs
Overall safety and tolerability of oral LEN ([4]; oral bridging period): generally safe and well tolerated
Participants with Grade 1 TEAEs ([4]; oral bridging period): 22.8%
Participants with Grade 2 TEAEs ([4]; oral bridging period): 24.6%
TEAE COVID-19 ([4]; oral bridging period): 7.0%
TEAE cough ([4]; oral bridging period): 5.3%
TEAE diarrhea ([4]; oral bridging period): 5.3%
TEAE upper respiratory tract infection ([4]; oral bridging period): 5.3%
Participants who experienced TEAEs ([4]; oral bridging period, 57 participants): 49.1%
